Assay results reported in patent EP0497091A1, “Bridged cyclic ketal derivatives” (GLAXO GROUP LIMITED, priority 1991, dated 1992).

The compounds below were run against T1, squalene synthase (Rattus norvegicus, UniProt Q02769) (assay: Inhibition of squalene synthase ([14C]squalene production from [2-14C]farnesylpyrophosphate)). Settings: not given.
T1 construct: from tissue; host or cells: rat liver homogenate
T1 sequence (Q02769 1-416): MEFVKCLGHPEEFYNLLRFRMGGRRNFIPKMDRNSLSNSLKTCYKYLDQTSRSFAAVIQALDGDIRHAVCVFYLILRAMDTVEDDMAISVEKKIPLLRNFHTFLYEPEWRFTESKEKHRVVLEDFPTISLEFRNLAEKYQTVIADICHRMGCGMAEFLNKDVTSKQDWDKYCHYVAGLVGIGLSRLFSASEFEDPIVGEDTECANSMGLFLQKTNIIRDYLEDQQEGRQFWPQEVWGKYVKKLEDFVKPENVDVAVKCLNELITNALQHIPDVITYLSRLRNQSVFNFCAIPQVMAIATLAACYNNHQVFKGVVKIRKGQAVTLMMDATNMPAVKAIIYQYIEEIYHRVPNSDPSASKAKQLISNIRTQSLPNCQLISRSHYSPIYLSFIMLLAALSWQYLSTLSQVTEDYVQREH
Type: biochemical
Description: A. Biller et al. in J. […] [¹⁴C]squalene is separated from unreacted substrate on thin layer chromatography plates and determined by liquid scintillation counting. […] Acta, Volume 877, 50-60 (1986) and modified to include measurement of cholesterol by high performance liquid chromatography (h.p.l.c.). […] A. […] [¹⁴C] Squalene was separated from unreacted substrate on thin layer chromatography plates and determined by liquid scintillation counting. Inhibition of squalene synthase was quantified by incubating rat liver homogenate with various concentrations of the test compound in the presence of [2-¹⁴C] farnesylpyrophosphate. The concentration of compound giving 50% inhibition of [¹⁴C] squalene production in a 30 minute assay was taken as the IC₅₀ value.

Q: `CCC(C)CC(C)CCC(=O)OC1C(O)C2(CCC(C)=CC(C)Cc3ccccc3)OC(C(=O)O)C(O)(C(=O)O)C1(C(=O)O)O2` (mixture of isomers) [Example 15, [1S-[1α[(Z/E),5S*],3α,4β,5α,6α(4S*6R*),7β]] 1-(3,5-Dimethyl-6-phenyl-3-hexenyl)-4,6,7-trihydroxy-2,8-dioxabicyclo[3.2.1]octane-3,4,5-tricarboxylic acid, 6-(4,6-dimethyloctanoate)] was tested. Which IC50 did it give?
A: The IC50 was under 100 nM.

Q: `CC[C@H](C)C[C@H](C)/C=C/C(=O)O[C@@H]1[C@@H](O)[C@@]2(C/C=C(\C)C(=O)[C@H](C)Cc3ccccc3)O[C@H](C(=O)O)[C@@](O)(C(=O)O)[C@]1(C(=O)O)O2` (relative stereo) [Example 2, [1S-[1α[(E),5S*],3α,4β,5α,6α(2E,4R*,6R*),7β]] 1-(3,5-Dimethyl-4-oxo-6-phenyl-2-hexenyl)-4,6,7-trihydroxy-2,8-dioxabicyclo[3.2.1]octane-3,4,5-tricarboxylic acid, 6-(4,6-dimethyl-2-octenoate)] was tested. Which IC50 did it give?
A: Its IC50 is under 100 nM.

Q: For `CC[C@H](C)C[C@H](C)/C=C/C(=O)O[C@@H]1[C@@H](O)[C@@]2(C/C=C(\C)[C@@H](O)[C@H](C)Cc3ccccc3)O[C@H](C(=O)O)[C@@](O)(C(=O)O)[C@]1(C(=O)O)O2` (relative stereo) [Example 5, [1S-[1α[(E),4R*,5S*],3α,4β,5α,6α(2E,4R*,6R*),7β]] 1-(4-Hydroxy-3,5-dimethyl-6-phenyl-2-hexenyl)-4,6,7-trihydroxy-2,8-dioxabicyclo[3.2.1]octane-3,4,5-tricarboxylic acid, 6-(4,6-dimethyl-2-octenoate)], which IC50 is on record?
A: The IC50 was under 100 nM.

Q: `CC[C@H](C)C[C@H](C)/C=C/C(=O)O[C@@H]1[C@@H](O)[C@@]2(C/C=C(\C)C[C@H](C)Cc3ccccc3)O[C@H](C(=O)O)[C@@](O)(C(=O)O)[C@]1(C(=O)O)O2` (relative stereo) [Example 9, [1S-[1α[(E),5R*],3α,4β,5α,6α(2E,4R*,6R*),7β]] 1-(3,5-Dimethyl-6-phenyl-2-hexenyl)-4,6,7-trihydroxy-2,8-dioxabicyclo[3.2.1]octane-3,4,5-tricarboxylic acid, 6-(4,6-dimethyl-2-octenoate)] was tested. Which IC50 did it give?
A: The IC50 was under 100 nM.

Q: `CCC(CC[C@]12O[C@H](C(=O)O)[C@@](O)(C(=O)O)[C@](C(=O)O)(O1)[C@H](OC(=O)/C=C/[C@@H](C)C[C@@H](C)CC)[C@H]2O)C(=O)[C@H](C)Cc1ccccc1` (relative stereo) [Example 10, [1S-[1α(3R*S*,5S*),3α,4β,5α,6α(2E,4R*,6R*),7β]] 1-(3-Ethyl-5-methyl-4-oxo-6-phenylhexyl)-4,6,7-trihydroxy-2,8-dioxabicyclo[3.2.1]octane-3,4,5-tricarboxylic acid, 6-(4,6-dimethyl-2-octenoate)] was tested. Which IC50 did it give?
A: The IC50 was under 100 nM.

Q: How did the IC50 turn out when `CC[C@H](C)C[C@H](C)CCC(=O)O[C@@H]1[C@@H](O)[C@@]2(C/C=C(\C)[C@@H](O)[C@H](C)Cc3ccccc3)O[C@H](C(=O)O)[C@@](O)(C(=O)O)[C@]1(C(=O)O)O2` (relative stereo) [Example 14, [1S-[1α[(E),4R*,5S*],3α,4β,5α,6α(4S*,6R*),7β]] 1-(3,5-Dimethyl-4-hydroxy-6-phenyl-2-hexenyl)-4,6,7-trihydroxy-2,8-dioxabicyclo[3.2.1]octane-3,4,5-tricarboxylic acid, 6-(4,6-dimethyloctanoate)] was run?
A: Its IC50 is under 100 nM.

Q: With `C=C(CC[C@]12O[C@H](C(=O)O)[C@@](O)(C(=O)O)[C@](C(=O)O)(O1)[C@H](OC(=O)C1CCCCC1)[C@H]2O)[C@@H](OC(C)=O)[C@H](C)Cc1ccccc1` (relative stereo) [Example 43, [1S-[1α(4R*,5S*),3α,4β,5α,6α,7β]] 1-(4-Acetyloxy-5-methyl-3-methylene-6-phenylhexyl)-4,6,7-trihydroxy-2,8-dioxabicyclo[3.2.1]octane-3,4,5-tricarboxylic acid, 6-(cyclohexanecarboxylate)] as the compound, how does the IC50 read?
A: The IC50 was under 100 nM.

Q: `C=C(CC[C@]12O[C@H](C(=O)O)[C@@](O)(C(=O)O)[C@](C(=O)O)(O1)[C@H](OC(=O)c1ccccc1)[C@H]2O)[C@@H](OC(C)=O)[C@H](C)Cc1ccccc1` (relative stereo) [Example 47, [1S-[4α(4R*,5S*),3α,4β,5α,6α,7β]] 1-(4-Acetyloxy-5-methyl-3-methylene-6-phenylhexyl)-4,6,7-trihydroxy-2,8-dioxabicyclo[3.2.1]octane-3,4,5-tricarboxylic acid, 6-benzoate] was tested. Which IC50 did it give?
A: The IC50 was under 100 nM.

Q: How did the IC50 turn out when `C=C(CC[C@]12O[C@H](C(=O)O)[C@@](O)(C(=O)O)[C@](C(=O)O)(O1)[C@H](OC(=O)/C=C/c1ccccc1)[C@H]2O)[C@@H](OC(C)=O)[C@H](C)Cc1ccccc1` (relative stereo) [Example 49, [1S-[1α(4R*,5S*),3α,4β,5α,6α(2E),7β]] 1-(4-Acetyloxy-5-methyl-3-methylene-6-phenylhexyl)-4,6,7-trihydroxy-2,8-dioxabicyclo[3.2.1]octane-3,4,5-tricarboxylic acid, 6-(3-phenyl-2-propenoate)] was run?
A: The IC50 was under 100 nM.

Q: With `C=C(CC[C@]12O[C@H](C(=O)O)[C@@](O)(C(=O)O)[C@](C(=O)O)(O1)[C@H](OC(=O)CCCC(C)=O)[C@H]2O)[C@@H](OC(C)=O)[C@H](C)Cc1ccccc1` (relative stereo) [Example 51, [1S-[1α(4R*,5S*),3α,4β,5α,6α,7β]] 1-(4-Acetyloxy-5-methyl-3-methylene-6-phenylhexyl)-4,6,7-trihydroxy-2,8-dioxabicyclo[3.2.1]octane-3,4,5-tricarboxylic acid, 6-(5-oxo-hexanoate)] as the compound, how does the IC50 read?
A: The IC50 was under 100 nM.

Q: `C=C(CC[C@]12O[C@H](C(=O)O)[C@@](O)(C(=O)O)[C@](C(=O)O)(O1)[C@H](OC(=O)OC)[C@H]2O)[C@@H](OC(C)=O)[C@H](C)Cc1ccccc1` (relative stereo) [Example 56, [1S-[1α(4R*,5S*),3α,4β,5α,6α,7β]] 1-(4-Acetyloxy-5-methyl-3-methylene-6-phenylhexyl)-4,7-dihydroxy-6-[(methoxycarbonyl)oxy]-2,8-dioxabicyclo[3.2.1]octane-3,4,5-tricarboxylic acid] was tested. Which IC50 did it give?
A: Its IC50 is under 100 nM.

Q: With `C=C(CC[C@]12O[C@H](C(=O)O)[C@@](O)(C(=O)O)[C@](C(=O)O)(O1)[C@H](OC(=O)OCCCC)[C@H]2O)[C@@H](OC(C)=O)[C@H](C)Cc1ccccc1` (relative stereo) [Example 60, [1S-[1α(4R*,5S*)3α,4β,5α,6α,7β]] 1-(4-Acetyloxy-5-methyl-3-methylene-6-phenylhexyl)-6-[(butoxycarbonyl)oxy]-4,7-dihydroxy-2,8-dioxabicyclo[3.2.1]octane-3,4,5-tricarboxylic acid] as the compound, how does the IC50 read?
A: The IC50 was under 100 nM.

Q: How did the IC50 turn out when `C=C(CC[C@]12O[C@H](C(=O)O)[C@@](O)(C(=O)O)[C@](C(=O)O)(O1)[C@H](OC(=O)NCC)[C@H]2O)[C@@H](OC(C)=O)[C@H](C)Cc1ccccc1` (relative stereo) [Example 66, [1S-[1α(4R*,5S*),3α,4β,5α,6α,7β]] 1-(4-Acetyloxy-5-methyl-3-methylene-6-phenylhexyl)-6-[[(ethylamino)carbonyl]oxy]4,7-dihydroxy-2,8-dioxabicyclo[3.2.1]octane-3,4,5-tricarboxylic acid] was run?
A: Its IC50 is under 100 nM.

Q: `C=C(CC[C@]12O[C@H](C(=O)O)[C@@](O)(C(=O)O)[C@](C(=O)O)(O1)[C@H](OC(=O)NC)[C@H]2O)[C@@H](OC(C)=O)[C@H](C)Cc1ccccc1` (relative stereo) [Example 67, [1S-[1α(4R*,5S*),3α,4β,5α,6α,7β]] 1-(4-Acetyloxy-5-methyl-3-methylene-6-phenylhexyl)-4,7-dihydroxy-6-[[(methylamino)carbonyl]oxy]-2,8-dioxabicyclo[3.2.1]octane-3,4,5-tricarboxylic acid] was tested. Which IC50 did it give?
A: Its IC50 is under 100 nM.

Same assay, conditions: rat liver homogenate; [2-¹⁴C] farnesylpyrophosphate as substrate; 50% inhibition of [¹⁴C] squalene production in a 30 minute assay; read-out: IC₅₀

Q: How did the IC50 turn out when `CCC(C)CC(C)/C=C/C(=O)OC1C(O)C2(CCC(C)C(=O)C(C)Cc3ccccc3)OC(C(=O)O)C(O)(C(=O)O)C1(C(=O)O)O2` (single isomer, unassigned) [Example 6, [1S-[1α[3R*(S*),5S*],3α,4β,5α,6α(2E,4R*,6R*),7β]] 1-(3,5-Dimethyl-4-oxo-6-phenylhexyl)-4,6,7-trihydroxy-2,8-dioxabicyclo[3.2.1]octane-3,4,5-tricarboxylic acid, 6-(4,6-dimethyl-2-octenoate), isomer 1 and isomer 2] was run?
A: Its IC50 is under 100 nM.

Q: Which IC50 does the source give for `CCC(C)CC(C)C=CC(=O)OC1C(O)C2(CCC(C)C(O)C(C)Cc3ccccc3)OC(C(=O)O)C(O)(C(=O)O)C1(C(=O)O)O2` (single isomer, unassigned) [Example 7, [1S-[1α[3R*(S*),4R*,5S*],3α,4β,5α,6α(2E,4R*,6R*),7β]] and [1S-[1α[3R*(S*),4S*,5S*],3α,4β,5α,6α(2E,4R*,6R*),7β]] 1-(4-Hydroxy-3,5-dimethyl-6-phenylhexyl)-4,6,7-trihydroxy-2,8-dioxabicyclo[3.2.1]octane-3,4,5-tricarboxylic acid, 6-(4,6-dimethyl-2-octenoate), isomer 1 and isomer 2] here?
A: The IC50 was under 100 nM.
